Reference: US20090304692A1, “TRIAZINE COMPOUNDS AS PI3 KINASE AND MTOR INHIBITORS” (Wyeth, priority 2008, published 2009)
Read-outs that look alike come from different tables or passages of the source.

How the values were obtained:
Human mTOR (FLAG-TOR) = Human mTOR (FLAG-TOR) (Homo sapiens, UniProt P42345); assay: mTOR kinase assay (DELFIA format, purified enzyme); type: biochemical; details: read-out: IC50 mTOR
[1] = system: human breast MDA-MB-361 tumor cell line; assay: In vitro cell culture growth assay (MTS), MDA-MB-361; type: cell-based; details: Homo sapiens, MTS cell growth assay, three days after drug treatment, MDA-MB-361 cells, read-out: IC50 MDA-MB-361
[2] = system: human prostate PC3-mm2 tumor cell line; assay: In vitro cell culture growth assay (MTS), PC3-mm2; type: cell-based; details: Homo sapiens, PC3MM2, 72 h, MTS cell growth assay, three days after drug treatment, PC3-mm2 cells; read-out: IC50 PC3-mm2
PI3K-α = PI3K-α (Homo sapiens, UniProt P42336); assay: PI3K-alpha fluorescence polarization assay; details: read-out: IC50 PI3Kα
PI3K-γ = PI3K-γ (Homo sapiens, UniProt P48736); assay: PI3K-gamma fluorescence polarization assay; details: read-out: IC50 PI3Kγ
Sequence of PI3K-γ (P48736 whole entry, species assumed): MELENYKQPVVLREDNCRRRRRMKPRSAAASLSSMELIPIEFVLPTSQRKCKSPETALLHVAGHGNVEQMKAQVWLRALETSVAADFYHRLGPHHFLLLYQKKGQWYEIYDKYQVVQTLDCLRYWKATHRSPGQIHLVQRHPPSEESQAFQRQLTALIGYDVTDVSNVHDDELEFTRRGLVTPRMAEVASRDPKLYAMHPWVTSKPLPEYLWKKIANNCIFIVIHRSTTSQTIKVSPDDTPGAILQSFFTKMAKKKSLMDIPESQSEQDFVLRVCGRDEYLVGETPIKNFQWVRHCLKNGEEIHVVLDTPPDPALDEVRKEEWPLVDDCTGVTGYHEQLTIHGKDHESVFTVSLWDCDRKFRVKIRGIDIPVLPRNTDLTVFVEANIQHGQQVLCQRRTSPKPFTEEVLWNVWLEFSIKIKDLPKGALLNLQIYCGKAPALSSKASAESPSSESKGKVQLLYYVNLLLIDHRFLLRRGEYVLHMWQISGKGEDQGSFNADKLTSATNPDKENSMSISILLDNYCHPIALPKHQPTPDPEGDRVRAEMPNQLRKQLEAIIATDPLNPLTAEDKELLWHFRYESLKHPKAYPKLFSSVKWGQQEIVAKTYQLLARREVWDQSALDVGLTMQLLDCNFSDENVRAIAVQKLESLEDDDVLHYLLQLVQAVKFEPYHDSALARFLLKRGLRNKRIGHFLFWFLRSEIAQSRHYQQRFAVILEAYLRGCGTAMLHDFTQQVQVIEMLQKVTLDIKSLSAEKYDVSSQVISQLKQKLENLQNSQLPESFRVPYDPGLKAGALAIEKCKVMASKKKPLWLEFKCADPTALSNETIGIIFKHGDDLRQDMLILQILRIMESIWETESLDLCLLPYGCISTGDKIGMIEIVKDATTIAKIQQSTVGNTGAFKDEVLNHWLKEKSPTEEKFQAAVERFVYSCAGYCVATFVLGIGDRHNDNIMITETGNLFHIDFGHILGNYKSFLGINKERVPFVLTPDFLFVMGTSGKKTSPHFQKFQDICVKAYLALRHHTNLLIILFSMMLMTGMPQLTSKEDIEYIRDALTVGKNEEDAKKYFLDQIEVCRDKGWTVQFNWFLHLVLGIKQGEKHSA

Sequence of Human mTOR (FLAG-TOR) (P42345 1360-2549 limits assumed): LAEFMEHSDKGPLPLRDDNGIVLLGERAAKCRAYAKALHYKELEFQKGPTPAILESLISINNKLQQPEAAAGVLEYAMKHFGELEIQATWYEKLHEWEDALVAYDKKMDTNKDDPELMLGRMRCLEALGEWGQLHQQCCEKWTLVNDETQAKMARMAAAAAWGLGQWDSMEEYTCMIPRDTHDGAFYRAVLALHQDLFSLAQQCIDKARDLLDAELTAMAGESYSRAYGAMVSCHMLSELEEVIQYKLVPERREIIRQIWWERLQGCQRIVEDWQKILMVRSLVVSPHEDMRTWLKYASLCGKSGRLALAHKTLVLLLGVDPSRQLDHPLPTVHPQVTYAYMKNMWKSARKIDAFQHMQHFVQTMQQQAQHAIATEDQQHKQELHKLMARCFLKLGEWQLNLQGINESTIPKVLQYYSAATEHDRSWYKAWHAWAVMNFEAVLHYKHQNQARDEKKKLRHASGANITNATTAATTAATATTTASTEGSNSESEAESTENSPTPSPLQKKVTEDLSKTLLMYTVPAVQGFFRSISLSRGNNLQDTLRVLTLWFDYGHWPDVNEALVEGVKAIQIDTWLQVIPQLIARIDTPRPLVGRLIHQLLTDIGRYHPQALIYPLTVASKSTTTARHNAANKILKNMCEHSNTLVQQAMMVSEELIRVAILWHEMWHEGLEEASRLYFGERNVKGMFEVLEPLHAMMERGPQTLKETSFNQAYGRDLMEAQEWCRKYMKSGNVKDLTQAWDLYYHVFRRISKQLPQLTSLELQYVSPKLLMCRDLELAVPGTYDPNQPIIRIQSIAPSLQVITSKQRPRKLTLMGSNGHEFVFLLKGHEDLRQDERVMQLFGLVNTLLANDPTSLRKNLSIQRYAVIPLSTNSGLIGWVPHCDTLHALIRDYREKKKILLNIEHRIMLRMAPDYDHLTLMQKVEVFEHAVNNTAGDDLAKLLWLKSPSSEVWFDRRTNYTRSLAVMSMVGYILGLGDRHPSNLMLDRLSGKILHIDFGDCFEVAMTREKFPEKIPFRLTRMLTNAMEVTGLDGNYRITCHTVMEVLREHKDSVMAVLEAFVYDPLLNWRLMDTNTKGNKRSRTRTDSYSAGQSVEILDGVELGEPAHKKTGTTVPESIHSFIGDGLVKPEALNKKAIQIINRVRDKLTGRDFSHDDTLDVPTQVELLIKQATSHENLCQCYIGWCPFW
Sequence of PI3K-α (P42336 whole entry, species assumed): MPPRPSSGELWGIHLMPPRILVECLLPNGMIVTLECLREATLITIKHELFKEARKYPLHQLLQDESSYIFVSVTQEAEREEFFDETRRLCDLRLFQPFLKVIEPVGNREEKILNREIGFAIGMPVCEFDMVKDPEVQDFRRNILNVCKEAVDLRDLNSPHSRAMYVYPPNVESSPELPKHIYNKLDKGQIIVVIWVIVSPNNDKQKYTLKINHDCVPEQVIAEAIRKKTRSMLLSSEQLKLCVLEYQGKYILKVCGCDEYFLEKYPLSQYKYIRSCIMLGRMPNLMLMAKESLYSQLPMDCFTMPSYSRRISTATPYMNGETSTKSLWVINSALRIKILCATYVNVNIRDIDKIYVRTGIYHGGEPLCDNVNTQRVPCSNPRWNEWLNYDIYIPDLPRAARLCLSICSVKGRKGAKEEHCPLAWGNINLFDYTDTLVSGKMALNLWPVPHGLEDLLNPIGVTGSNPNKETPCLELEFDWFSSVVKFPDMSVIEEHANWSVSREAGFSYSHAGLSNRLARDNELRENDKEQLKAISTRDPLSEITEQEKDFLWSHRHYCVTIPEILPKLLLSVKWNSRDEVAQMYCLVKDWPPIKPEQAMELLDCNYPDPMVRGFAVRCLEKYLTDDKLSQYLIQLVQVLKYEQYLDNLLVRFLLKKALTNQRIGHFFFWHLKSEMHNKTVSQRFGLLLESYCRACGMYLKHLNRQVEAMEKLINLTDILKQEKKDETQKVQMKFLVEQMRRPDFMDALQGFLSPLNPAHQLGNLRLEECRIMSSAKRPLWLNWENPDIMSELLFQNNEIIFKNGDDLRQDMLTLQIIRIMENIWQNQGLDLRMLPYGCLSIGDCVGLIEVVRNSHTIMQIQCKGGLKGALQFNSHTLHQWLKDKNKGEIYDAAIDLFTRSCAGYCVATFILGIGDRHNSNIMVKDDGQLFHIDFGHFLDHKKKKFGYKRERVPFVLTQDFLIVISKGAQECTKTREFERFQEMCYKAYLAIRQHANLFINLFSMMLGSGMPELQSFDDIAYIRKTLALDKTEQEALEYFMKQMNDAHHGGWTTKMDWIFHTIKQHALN
Sequence of PI3K-α (P27986 whole entry partner, species assumed): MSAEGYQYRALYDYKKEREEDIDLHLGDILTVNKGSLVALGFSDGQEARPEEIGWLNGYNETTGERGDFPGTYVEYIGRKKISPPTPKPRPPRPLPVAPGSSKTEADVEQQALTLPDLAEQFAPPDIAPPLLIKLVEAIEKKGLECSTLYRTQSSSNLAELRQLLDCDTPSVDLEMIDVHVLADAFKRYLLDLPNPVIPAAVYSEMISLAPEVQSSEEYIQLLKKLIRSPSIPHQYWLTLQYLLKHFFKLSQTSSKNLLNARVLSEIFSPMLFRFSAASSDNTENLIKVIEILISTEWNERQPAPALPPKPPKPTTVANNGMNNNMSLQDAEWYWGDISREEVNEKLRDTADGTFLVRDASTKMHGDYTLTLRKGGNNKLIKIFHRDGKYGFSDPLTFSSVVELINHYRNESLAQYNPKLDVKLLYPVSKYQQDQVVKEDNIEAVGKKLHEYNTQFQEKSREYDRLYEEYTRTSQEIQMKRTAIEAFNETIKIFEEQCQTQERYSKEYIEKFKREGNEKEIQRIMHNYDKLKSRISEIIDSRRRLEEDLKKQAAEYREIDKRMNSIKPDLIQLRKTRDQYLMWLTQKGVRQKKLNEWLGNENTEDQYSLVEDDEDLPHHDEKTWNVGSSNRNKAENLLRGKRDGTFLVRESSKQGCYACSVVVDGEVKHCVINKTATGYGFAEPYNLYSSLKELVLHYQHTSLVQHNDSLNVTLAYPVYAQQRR

SMILES | IC50 (Human mTOR (FLAG-TOR)) [nM] | IC50 ([1]; MDA-MB-361, 72 h) [nM] | IC50 [2] [nM] | IC50 (PI3K-α) [nM] | IC50 (PI3K-γ) [nM] | IC50 ([1]; 72 h) [nM]
O=C(Nc1ccc(C(=O)N2CCCC2)cc1)Nc1ccc(-c2nc(N3CCCC3)nc(N3CCOCC3)n2)cc1 [Example 612, 1-[4-(4-morpholin-4-yl-6-pyrrolidin-1-yl-1,3,5-triazin-2-yl)phenyl]-3-[4-(pyrrolidin-1-ylcarbonyl)phenyl]urea] | 61 | 38 | 227 | 5.5 | 67 | 
CCN1CCN(C(=O)c2ccc(NC(=O)Nc3ccc(-c4nc(N5CCOC[C@@H]5C)nc(N5CCOC[C@@H]5C)n4)cc3)cc2)CC1 [Example 613, 1-(4-{4,6-bis[(3S)-3-methylmorpholin-4-yl]-1,3,5-triazin-2-yl}phenyl)-3-{4-[(4-ethylpiperazin-1-yl)carbonyl]phenyl}urea] | 1 |  | 21 | 3.8 | 53.5 | 6
CC(C)N1CCN(C(=O)c2ccc(NC(=O)Nc3ccc(-c4nc(N5CCOC[C@@H]5C)nc(N5CCOC[C@@H]5C)n4)cc3)cc2)CC1 [Example 614, 1-(4-{4,6-bis[(3S)-3-methylmorpholin-4-yl]-1,3,5-triazin-2-yl}phenyl)-3-(4-{[4-(1-methylethyl)piperazin-1-yl]carbonyl}phenyl)urea] | 1 |  | 15 | 2.7 | 32.5 | 4
COC(=O)c1ccc(NC(=O)Nc2ccc(-c3nc(N4CCOCC4)nc(N4CCOC[C@@H]4C)n3)cc2)cc1 [Example 615, methyl 4-{[(4-{4-[(3S)-3-methylmorpholin-4-yl]-6-morpholin-4-yl-1,3,5-triazin-2-yl}phenyl)carbamoyl]amino}benzoate] | 1 |  | 123 | 26.5 | 116 | 88
C[C@H]1COCCN1c1nc(-c2ccc(NC(=O)Nc3ccc(C(=O)N4CCC(N(C)C)CC4)cc3)cc2)nc(N2CCOC[C@@H]2C)n1 [Example 616, 1-(4-{4,6-bis[(3S)-3-methylmorpholin-4-yl]-1,3,5-triazin-2-yl}phenyl)-3-(4-{[4-(dimethylamino)piperidin-1-yl]carbonyl}phenyl)urea] | 1 | 4 | 21 | 4 | 58.5 | 
C[C@H]1COCCN1c1nc(-c2ccc(NC(=O)Nc3ccc(C(=O)N4CCN(C)CC4)cc3)cc2)nc(N2CCOCC2)n1 [Example 617, 1-(4-{4-[(3S)-3-methylmorpholin-4-yl]-6-morpholin-4-yl-1,3,5-triazin-2-yl}phenyl)-3-{4-[(4-methylpiperazin-1-yl)carbonyl]phenyl}urea] | 1 | 4 | 17 | 2.5 | 27 | 
CC(C)N1CCN(C(=O)c2ccc(NC(=O)Nc3ccc(-c4nc(N5CCOCC5)nc(N5CCOC[C@@H]5C)n4)cc3)cc2)CC1 [Example 618, 1-(4-{[4-(1-methylethyl)piperazin-1-yl]carbonyl}phenyl)-3-(4-{4-[(3S)-3-methylmorpholin-4-yl]-6-morpholin-4-yl-1,3,5-triazin-2-yl}phenyl)urea] | 1 | 2 | 13 | 2 | 18.5 | 
CCN1CCN(C(=O)c2ccc(NC(=O)Nc3ccc(-c4nc(N5CCOCC5)nc(N5CCOC[C@@H]5C)n4)cc3)cc2)CC1 [Example 620, 1-{4-[(4-ethylpiperazin-1-yl)carbonyl]phenyl}-3-(4-{4-[(3S)-3-methylmorpholin-4-yl]-6-morpholin-4-yl-1,3,5-triazin-2-yl}phenyl)urea] | 3 | 4 | 16 | 4 | 32.5 | 
C[C@H]1COCCN1c1nc(-c2ccc(NC(=O)Nc3ccc(C(=O)NCCCN(C)C)cc3)cc2)nc(N2CCOCC2)n1 [Example 621, N-[3-(dimethylamino)propyl]-4-{[(4-{4-[(3S)-3-methylmorpholin-4-yl]-6-morpholin-4-yl-1,3,5-triazin-2-yl}phenyl)carbamoyl]amino}benzamide] | 1 |  | 35 | 3.5 | 43.5 | 8
C[C@@H]1COCCN1c1nc(-c2ccc(NC(=O)Nc3ccc(C(=O)N4CCN(C)CC4)cc3)cc2)nc(N2CCOC[C@@H]2C)n1 [Example 623, 1-(4-{4-[(3R)-3-methylmorpholin-4-yl]-6-[(3S)-3-methylmorpholin-4-yl]-1,3,5-triazin-2-yl}phenyl)-3-{4-[(4-methylpiperazin-1-yl)carbonyl]phenyl}urea] | 1 |  | 32 | 12.5 | 104 | 6
CCCN(CCC)C1CCN(C(=O)c2ccc(NC(=O)Nc3ccc(-c4nc(N5CCOC[C@@H]5C)nc(N5CCOC[C@@H]5C)n4)cc3)cc2)CC1 [Example 624, 1-(4-{4,6-bis[(3S)-3-methylmorpholin-4-yl]-1,3,5-triazin-2-yl}phenyl)-3-(4-{[4-(dipropylamino)piperidin-1-yl]carbonyl}phenyl)urea] | 1 | 4 | 19 | 17.5 | 58.5 | 
CCN1CCN(C(=O)c2ccc(NC(=O)Nc3ccc(-c4nc(N5CCOC[C@H]5C)nc(N5CCOC[C@@H]5C)n4)cc3)cc2)CC1 [Example 625, 1-{4-[(4-ethylpiperazin-1-yl)carbonyl]phenyl}-3-(4-{4-[(3R)-3-methylmorpholin-4-yl]-6-[(3S)-3-methylmorpholin-4-yl]-1,3,5-triazin-2-yl}phenyl)urea] | 3 |  | 43 | 16.5 | 102 | 12
CCCCN1CCN(C(=O)c2ccc(NC(=O)Nc3ccc(-c4nc(N5CCOC[C@H]5C)nc(N5CCOC[C@@H]5C)n4)cc3)cc2)CC1 [Example 627, 1-{4-[(4-butylpiperazin-1-yl)carbonyl]phenyl}-3-(4-{4-[(3R)-3-methylmorpholin-4-yl]-6-[(3S)-3-methylmorpholin-4-yl]-1,3,5-triazin-2-yl}phenyl)urea] | 2 |  | 55 | 18.5 | 102 | 16

Further lines, results first:

IC50 (Human mTOR (FLAG-TOR)) [nM] | IC50 ([1]; MDA-MB-361, 72 h) [nM] | IC50 [2] [nM] | IC50 (PI3K-α) [nM] | IC50 (PI3K-γ) [nM] | IC50 ([1]; 72 h) [nM] | SMILES
4 |  | 133 | 26 | 95 | 28 | CCCCN1CCN(C(=O)c2ccc(NC(=O)Nc3ccc(-c4nc(N5CCOC[C@@H]5C)nc(N5CCOC[C@@H]5C)n4)cc3)cc2)CC1 [Example 629, 1-(4-{4,6-bis[(3S)-3-methylmorpholin-4-yl]-1,3,5-triazin-2-yl}phenyl)-3-{4-[(4-butylpiperazin-1-yl)carbonyl]phenyl}urea]
1 |  | 23 | 13.5 | 84.5 | 5 | CC(C)N1CCN(C(=O)c2ccc(NC(=O)Nc3ccc(-c4nc(N5CCOC[C@H]5C)nc(N5CCOC[C@@H]5C)n4)cc3)cc2)CC1 [Example 630, 1-(4-{[4-(1-methylethyl)piperazin-1-yl]carbonyl}phenyl)-3-(4-{4-[(3R)-3-methylmorpholin-4-yl]-6-[(3S)-3-methylmorpholin-4-yl]-1,3,5-triazin-2-yl}phenyl)urea]
4 |  | 120 | 28 | 133 | 28 | CC(C)CN1CCN(C(=O)c2ccc(NC(=O)Nc3ccc(-c4nc(N5CCOC[C@@H]5C)nc(N5CCOC[C@@H]5C)n4)cc3)cc2)CC1 [Example 631, 1-(4-{4,6-bis[(3S)-3-methylmorpholin-4-yl]-1,3,5-triazin-2-yl}phenyl)-3-(4-{[4-(2-methylpropyl)piperazin-1-yl]carbonyl}phenyl)urea]
1 |  | 38 | 15 | 74.5 | 9 | CCC(C)N1CCN(C(=O)c2ccc(NC(=O)Nc3ccc(-c4nc(N5CCOC[C@@H]5C)nc(N5CCOC[C@@H]5C)n4)cc3)cc2)CC1 (stereo partly drawn) [Example 632, 1-(4-{4,6-bis[(3S)-3-methylmorpholin-4-yl]-1,3,5-triazin-2-yl}phenyl)-3-(4-{[4-(1-methylpropyl)piperazin-1-yl]carbonyl}phenyl)urea]
1 |  | 64 | 11.5 | 175 | 15 | C[C@H]1COCCN1c1nc(-c2ccc(NC(=O)Nc3ccc(C(=O)NCCN4CCN(C)CC4)cc3)cc2)nc(N2CCOC[C@@H]2C)n1 [Example 633, 4-{[(4-{4,6-bis[(3S)-3-methylmorpholin-4-yl]-1,3,5-triazin-2-yl}phenyl)carbamoyl]amino}-N-[2-(4-methylpiperazin-1-yl)ethyl]benzamide]
4 | 26 | 62 | 21.5 | 190 |  | C[C@H]1COCCN1c1nc(-c2ccc(NC(=O)Nc3ccc(C(=O)N4CCCCC4)cc3)cc2)nc(N2CCOC[C@@H]2C)n1 [Example 637, 1-(4-{4,6-bis[(3S)-3-methylmorpholin-4-yl]-1,3,5-triazin-2-yl}phenyl)-3-[4-(piperidin-1-ylcarbonyl)phenyl]urea]
2 |  | 44 | 16 | 114 | 9 | CCCN1CCN(C(=O)c2ccc(NC(=O)Nc3ccc(-c4nc(N5CCOC[C@@H]5C)nc(N5CCOC[C@@H]5C)n4)cc3)cc2)CC1 [Example 638, 1-(4-{4,6-bis[(3S)-3-methylmorpholin-4-yl]-1,3,5-triazin-2-yl}phenyl)-3-{4-[(4-propylpiperazin-1-yl)carbonyl]phenyl}urea]
